{"source": "patent US8222261B2", "about": "“Chemical compounds” (GlaxoSmithKline, LLC, priority 2006, dated 2012)", "key": {"Male Wistar rats": {"test_system": "Male Wistar rats", "assay": "Glucose stimulated insulin secretion in rats, hyperglycemic clamp", "format": "in vivo", "procedure": "Male Wistar rats (Taconic farms, USA), weighing 300-350 gram, had catheters surgically implanted into the jugular and femoral veins and allowed to recover for one week following the surgery. On the day before the experiment, food was removed in the afternoon for an overnight fast. The following morning animals were randomly assigned to three treatment groups, vehicle (n=19) and either 1 mg/kg (n=8) or 10 mg/kg (n=8) of a GPR119 agonist (Example 1), and baseline blood samples were collected from the jugular vein. Animals were then administered either vehicle or Example 1 by oral gavage. A second blood sample was collected approximately 90 minutes after the oral gavage immediately prior to starting the hyperglycemic clamp. The clamp was initiated by infusing an empirically determined glucose bolus over 15-30 seconds into the femoral vein, followed by a variable rate glucose infusion adjusted to achieve a stable plasma glucose level of 190-210 mg/dl. After infusion of the glucose bolus, blood samples were collected every 5 minutes for glucose measurements. Samples for C-peptide level were collected a 2, 5, 10, 15, 20, 25, 30, 46, 60, 90 and 120 minutes during the hyperglycemic clamp. C-peptide was measured as a surrogate for insulin as it is co-secreted with insulin in equimolar amount with lower hepatic clearance, thus a better reflection of insulin secretion from the pancreatic β-cells. All blood samples were placed in individual tubes containing a gel clot activator (Cat # T-MG, Terumo Medial Corporation, Elkton, Md.) and allowed to clot in room temperature for 20 min before centrifugation and collection of serum. Glucose levels were measured using an Olympus AU640 analyzer (Olympus America Inc, Melville, N.Y.), and C-peptide levels by an RIA (Linco Diagnostic services, St Charles, Mo.). The rats were sacrificed at the end of the study by an overdose of Nembutal.\nThere was no difference in plasma glucose levels between treatment groups. […] The characteristic biphasic insulin secretion response (measured as an increase in C-peptide levels) elicited by the rapid increase in plasma glucose levels is shown in FIG. 13, with the first phase occurring within the first 5 minutes and the second phase from 15 minutes and beyond."}, "male C57BL/6 mice": {"test_system": "male C57BL/6 mice", "assay": "Oral glucose tolerance in normal mice", "format": "in vivo", "details": "fasted mice, Example 1 30 mg/kg, DPPIV inhibitor 10 mg/kg oral, 2 g/kg dextrose oral 1 h after dosing", "procedure": "Nine weeks old male C57BL/6 mice (Taconic farms, USA) were fasted overnight and randomly assigned to three different treatment groups (n=9-10 per treatment arm) to receive vehicle (0.5% HPMC/0.1% Tween80), a GPR119 agonist (Example 1, 30 mg/kg) or a positive control (10 mg/kg), specifically a DPPIV inhibitor known to improve glucose tolerance in vivo by preventing degradation of the GLP-1 and GIP. Vehicle or compounds were delivered by oral gavage at a volume of 10 mL/kg, and the tip of tail was nicked using a scalpel to allow whole blood glucose measurements. One hour after administration of vehicle or test compounds, 2 g/kg of dextrose was administered by oral gavage. Whole blood glucose levels were determined from the abrasion at the tip of the tail at time points as indicated in FIG. 16 using a Glucometer (Freestyle, Therasense). At the end of the study the mice were sacrificed by cervical dislocation."}, "C57BL/6 male mice": {"test_system": "C57BL/6 male mice", "assay": "Effect of a GPR119 agonist on circulating GLP-1 and GIP in vivo in mice", "details": "fasted mice, 1, 3, 10, 30 or 60 mg/kg oral gavage, 60 min after dosing", "procedure": "Ten weeks old C57BL/6 male mice (Taconic Farms, USA) were fasted overnight then randomly distributed into 6 treatment groups (n=10 mice per treatment group) receiving either vehicle (0.5% HPMC/0.1% Tween80), or a GPR119 agonist (Example 1) at five different doses (1, 3, 10, 30 or 60 mg/kg) by oral gavage. All animals were dosed with a volume of 10 mL/kg of their designated treatment. Sixty minutes after the oral gavage the mice were anesthetized using isofluorane for collection of blood samples by cardiac puncture. All mice were euthanized by cervical dislocation immediately following the cardiac puncture. […] Total GLP-1 levels were determined using a MULTI-ARRAY® electrochemoluminescence assay from Meso Scale Discovery (Cat #K110-FAC-2; Gaithersburg, Md.). Total GIP levels were determined using an ELISA assay (Cat# EZRMGIP-55K, Linco Diagnostic Services, St Charles, Mo.).\nData is represented as box plots summarizing the distribution of individual data point for each treatment group. […] FIG. 1 and FIG. 2 show total GLP-1 and total GIP respectively measured in circulation following administration of vehicle or a GPR119 agonist (Example 1) at doses as indicated."}, "Male Sprague Dawley rats": {"test_system": "Male Sprague Dawley rats", "assay": "Whole body insulin sensitivity, euglycemic hyperinsulinemic clamp in rats", "format": "in vivo", "details": "10 mg/kg oral", "procedure": "Male Sprague Dawley rats, weighing at 300-350 gram, had catheters surgically implanted into the jugular and femoral veins and allowed to recover for one week following the surgery. On the day before the experiment, food was removed in the afternoon to fast the animals overnight. The following morning animals were randomly assigned to two treatment groups, vehicle (n=7) and or 10 mg/kg of a GPR119 agonist (Example 1, n=9). Blood samples were collected from the jugular vein for baseline glucose measurements prior to oral administration of the respective treatment. The euglycemic hyperinsulinemic clamp was initiated approximately 90 minutes following oral administration of the respective treatments, by starting the constant insulin infusion at a rate of 1 mU/kg/min human insulin (Humulin, Eli Lilly and Company, Indianapolis, Id.) into the femoral vein of conscious animals. Whole blood glucose levels were measured every 10 minutes throughout the clamp. As the plasma glucose levels began to fall exogenous glucose infusion was started at a variable rate adjusted to achieve a stable plasma glucose level of 90-100 mg/dl. The glucose infusion rate required to maintain euglycemia was recorded throughout the experiment for each animal, and represents a measure of insulin sensitivity. Plasma glucose and human insulin levels were measured at the end of the clamp (at 180 min) as described above. At the end of the study the rats were sacrificed by an overdose of Nembutal.\nData is represented as box plots summarizing the distribution of data for each treatment group, as described above. Horizontal lines represent the mean data. […] The data is represented as mean GIR±SEM. At steady state, 180 minutes after starting the clamp, the glucose infusion rate required to maintain euglycemia in Example 1 treated animals were three times that of vehicle treated animals."}, "[1]": {"details": "rats, end of clamp (180 min), between treatment groups"}}}
{"compound": "CC(C)OC(=O)N1CCC(Oc2ncnc3c2CCN3c2ccc(S(C)(=O)=O)cc2F)CC1", "note": "[Example 1, 1-Methylethyl 4-({7-[2-fluoro-4-(methylsulfonyl)phenyl]-6,7-dihydro-5H-pyrrolo[2,3-d]pyrimidin-4-yl}oxy)-1-piperidinecarboxylate]", "values": [{"measurement": "glucose infusion rates (GIR) required to sustain the hyperglycemic clamp", "setting": "Male Wistar rats; 10 mg/kg oral, compared to 1 mg/kg or vehicle", "value": "required more exogenous glucose"}, {"measurement": "C-peptide levels (surrogate for insulin secretion)", "setting": "Male Wistar rats; 10 mg/kg oral, compared to vehicle or 1 mg/kg, throughout the hyperglycemic clamp", "value": "significantly increased"}, {"measurement": "plasma glucose levels achieved during the hyperglycemic clamp", "setting": "Male Wistar rats; 1 or 10 mg/kg oral vs vehicle, clamp started about 90 min after gavage", "value": "no difference"}, {"measurement": "first (0-5 min) and second phase (15-90 min) glucose stimulated insulin secretory response", "setting": "Male Wistar rats; hyperglycemic clamp", "value": "augments"}, {"measurement": "glucose disposal during the oral glucose tolerance test (whole blood glucose)", "setting": "male C57BL/6 mice", "value": "significantly enhanced"}, {"measurement": "circulating total GIP levels", "setting": "C57BL/6 male mice", "value": "dose dependent increase"}, {"measurement": "circulating total GLP-1 levels", "setting": "C57BL/6 male mice", "value": "dose dependent increase"}, {"measurement": "whole body insulin sensitivity", "setting": "Male Sprague Dawley rats; normal rats, euglycemic hyperinsulinemic clamp", "value": "enhances"}, {"measurement": "euglycemia (plasma glucose at the end of the clamp)", "setting": "Male Sprague Dawley rats; [1]", "value": "no significant difference"}, {"measurement": "steady state insulin exposure", "setting": "Male Sprague Dawley rats; [1]", "value": "no significant difference"}, {"measurement": "glucose infusion rate required to maintain euglycemia, relative to vehicle", "setting": "Male Sprague Dawley rats; rats, steady state 180 minutes after starting the clamp, insulin 1 mU/kg/min", "value": "three times"}]}
